Experimental findings from patent US20110207697A1, “XANTHOHUMOL COMPOSITIONS AND METHODS FOR TREATING SKIN DISEASES OR DISORDERS” (Betal, LLC, priority 2008, published 2011) are described below.

Molecules are shown by their SMILES. Converted amounts (≈) assume the structure as drawn. Like-named read-outs stand apart in the source and are kept apart here.

One series deals with S. pyogenes (ATCC 14289). The experiment in a line: Antimicrobial susceptibility, broth dilution (MIC/MBC). Format: cell-based, Streptococcus pyogenes. The procedure:
The antibacterial effects of seven hops components against five different strains of bacteria involved in primary or secondary skin and soft tissue infections was evaluated, with broth dilution methods. […] Antimicrobial susceptibility testing was performed using a broth dilution method. Gentamicin or ampicillin was used as a control to verify the methodology. A stock solution (20 mg/ml) of the test substance (or vehicle control) was prepared in dimethyl sulfoxide. Serial dilution was done in microwell plates. Reinforced Clostridial Medium was used for P. acnes (ATCC 6919). Three hundreds […] of the test substance was added to the test tube containing P. acnes (10^5 CFU/ml) in 2.7 ml of cultures grown under anaerobic conditions. Mueller-Hinston Broth suitable for culturing S. epidermidis (ATCC 12228), K. rhizophila (formerly M. luteus) (ATCC 9341), and S. aureus (ATCC […]), and Brain Heart Infusion Broth suitable for culturing S. pyogenes (ATCC 14289) were used. A total of […] of the test substance was added to the test tube containing the other microorganisms (10^5CFU/ml) in 0.9 ml of cultures grown under controlled conditions. […] Samples from those tubes that scored positive was plated onto an agar plate and incubated under controlled conditions.
For orientation: In broth dilution the organism is exposed to a series of concentrations in liquid medium.

Series [1] addresses T1, interstitial collagenase (MMP-1) (Homo sapiens, UniProt P03956).
T1 construct: host or cells: mammalian cells
T1 sequence (P03956 100-469): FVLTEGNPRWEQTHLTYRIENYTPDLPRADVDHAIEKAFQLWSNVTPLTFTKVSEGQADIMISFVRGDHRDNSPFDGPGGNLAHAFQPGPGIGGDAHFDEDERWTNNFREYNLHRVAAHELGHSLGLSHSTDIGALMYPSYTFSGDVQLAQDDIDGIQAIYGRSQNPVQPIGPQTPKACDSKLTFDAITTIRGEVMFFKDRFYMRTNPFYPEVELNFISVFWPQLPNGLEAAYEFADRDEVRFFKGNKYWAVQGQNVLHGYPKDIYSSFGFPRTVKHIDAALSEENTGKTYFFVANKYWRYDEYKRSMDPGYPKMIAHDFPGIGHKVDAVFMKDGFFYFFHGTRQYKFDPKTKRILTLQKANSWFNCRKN
The experiment in a line: Anticollagenase assay. Conditions: mean of three measurements. In kind it is biochemical. The protocol: (§1) Human recombinant matrix metalloproteinase-MMP-1) pro-enzyme, expressed in mammalian cells, and human nutrophil MMP-8 pro-enzyme were activated with 4-aminophenylmercuric acetate for 60 min 37 1 C, respectively (Knight et al. 1992 FEBS Lett. 296: 263-266). Hop components and vehicle were preincubated with 5 nM MMP- and 6 nM MMP-8 active enzymes in a modified MOPS buffer, pH 7.2, for 60 minutes at 37 C. The reaction was initiated by addition of […] Mca-Pro-Leu-Gly-Leu-Dpa-Ala-Arg for another 120-minute incubation period. The determination of the amount of Mca-Pro-Leu-Gly formed was read spectrofluorimetrically at 340/400 nm. Tissue inhibitors of metalloproteinase TIMP-1 and TIMP-2 were used as positive controls (Olson et 1997 J. Biol. Chem. 272: 29975-29983).

The target in series [2] is T2, neutrophil collagenase (MMP-8) (Homo sapiens, UniProt P22894).
T2 construct: from tissue; host or cells: human neutrophils
T2 sequence (P22894 101-467): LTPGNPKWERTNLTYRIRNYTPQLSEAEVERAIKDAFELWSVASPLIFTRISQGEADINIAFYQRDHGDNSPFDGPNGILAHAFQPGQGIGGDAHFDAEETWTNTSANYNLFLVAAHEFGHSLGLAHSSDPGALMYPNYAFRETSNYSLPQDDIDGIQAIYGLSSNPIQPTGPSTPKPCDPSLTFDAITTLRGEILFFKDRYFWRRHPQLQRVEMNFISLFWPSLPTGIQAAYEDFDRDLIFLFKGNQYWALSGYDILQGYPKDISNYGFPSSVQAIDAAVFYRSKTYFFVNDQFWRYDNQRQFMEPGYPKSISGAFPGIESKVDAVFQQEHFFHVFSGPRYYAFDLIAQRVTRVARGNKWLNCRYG
The experiment in a line: Anticollagenase assay. Format: biochemical. The settings on record: mean of three measurements. The procedure: as §1

Series [3] in a line: Water solubility of xanthohumol (HPLC of supernatant). Format: physicochemical. The settings on record: thermodynamic from solid, 1 mg xanthohumol per ml water, sonicated 5 minutes. The protocol: Pure xanthohumol (XN), Xanohop A, xanthohumol-gamma cyclodextrin (XN/gCD), and xanthohumol-beta cyclodextrin (XN/bCD) were dispersed in water at a ratio of 1 mg xanthohumol per ml of water. After being sonicated for 5 minutes, the resultant suspensions were centrifuged at 3,000 rpm for 2 minutes or 12,000 rpm for 3 minutes. The supernatants thus formed were collected, diluted (1:10) with methanol, and then injected into HPLC to determine xanthohumol concentrations.

`COc1cc(O)c(CC=C(C)C)c(O)c1C(=O)/C=C/c1ccc(O)cc1` [Xanthohumol (7), 3′-[3,3-dimethylallyl]-2′,4′,4-trihydroxy-6′-methoxychalcone]: the MBC entry with S. pyogenes (ATCC 14289) was “[3] g/mL”. Besides, inhibition of growth with S. pyogenes (ATCC 14289) (1 day) (MIC) required 1 mg/L (≈ 2.82 µM). Besides, the “Inhibitory ratio (%) MMP-1” value was found to be 25% in series [1] (10 μg/mL), 65% in series [1] (30 μg/mL) and 91% in series [1] (100 μg/mL). For the same compound, the “Inhibitory ratio (%) MMP-8” value is recorded as 31% in series [2] (10 μg/mL), 70% in series [2] (30 μg/mL) and 99% in series [2] (100 μg/mL). Besides, the solubility (in general, how much of the substance goes into solution per volume) at 5 min is 4 µg/mL (≈ 11.3 µM) in series [3] (centrifuged 3,000 rpm 2 minutes, read-out: Water-solubility of XN (3,000 rpm)) and 2 µg/mL (≈ 5.64 µM) in series [3] (centrifuged 12,000 rpm 3 minutes, read-out: Water-solubility of XN (12,000 rpm)).
